According to patent US20090186929A1, “Method and agent for inducing apoptosis/cell death in leukemia cells” (U.S. DEPARTMENT OF VETERANS AFFAIRS, priority 2003, published 2009):
Where a name gives a salt, the structure may show the parent alone. Read-outs that look alike come from different tables or passages of the source. Each block holds one molecule with its values, some of them ahead of it.

How the values were obtained:
purified human NOS2 = target: T1, purified human NOS2 (Homo sapiens, UniProt P35228); assay: Inhibition of purified NOS2 enzyme activity; format: biochemical; conditions: mean ± SEM, N = 3
T1 construct: determined using purified recombinant full-length human NOS1 and NOS2
Procedure: (§1) The NOS1 and NOS2 IC50's and Kd's for each NOS inhibitor were determined using purified recombinant full-length human NOS1 and NOS2. The cLogP value for each NOS inhibitor was determined using the CLOGP computer program (BioByte, Claremont, Calif.). […] Linear regression was used to examine the correlation between the IC50, Kd and cLogP values and ED50 values.
(§2) We determined the dissociation constant for NOS inhibitor binding (Kd) to purified recombinant and NOS2.

purified human NOS1 = target: T2, purified human NOS1 (Homo sapiens, UniProt P29475); assay: Inhibition of purified NOS1 enzyme activity; format: biochemical; conditions: mean ± SEM, N = 3
T2 construct: determined using purified recombinant full-length human NOS1 and NOS2
Procedure: as §1, §2

CLL cells [1] = assay: Cytotoxicity of NOS inhibitors for CLL cells in vitro (MTS assay); conditions: for EC50: read-out: Mean ED50 ± S.E.M. (CLL cell cytotoxicity)
Excerpt: We worked to optimize the culture of CLL cells (Reference 86). […] These were all tested with and without albumin, fetal bovine serum, human serum, glutamine, insulin, transferrin, selenium, and mercaptoethanol.
Toxicity could be detected by disappearance of cells from the culture (reduction in overall cell number), uptake of trypan blue, propidium iodide uptake (flow cytometry), MTS (4,5-dimethylthiazol-2-yl)-5-(3-carboxymethoxyphenyl)-2-(4-sulfophenyl)-2H-tetrazolium, inner salt) assay (cellular respiration), and several parameters of apoptosis [annexin V assay, DNA content […], and TUNEL assay].

[2] = tested on: freshly-isolated CLL cells; assay: Exogenous NO donors and drugs on freshly-isolated CLL cells (apoptosis and death); format: cell-based, human; conditions: for NO / DETA-NO interaction with the agent's activity on CLL cells: combination of the agent with NO donor
Excerpt: We next wanted to examine CLL cells. These malignant cells differ in many ways from ANLL and normal hematopoietic. In addition to their different lineage, they are unique in that they have a very low […], exist primary in the G0 phase of the cell cycle, and have defective apoptosis.

[3] = 50 mg/kg in mice; cited from earlier work
CLL cells [4] = assay: CLL cell apoptosis by Annexin V binding; format: cell-based, human
Procedure: Annexin V binding to CLL cells increased after CLL cell co-culture for 2-6 h.

CLL cell caspase-3 = CLL cell caspase-3 enzyme activity after culture with AR-R17477; format: cell-based, human; conditions: for Mean caspase-3 activity: 4 h culture, N = 3
HL-60 and U937 cells = assay: NO donor inhibition of leukemia cell and colony growth; format: cell-based, human
Excerpt: To more closely examine the mechanism of toxicity for myeloid leukemia cells, we did work to determine whether the rate of NO delivery affected its growth inhibition of acute nonlymphocytic leukemia cells. We also wanted to determine whether the NO inhibition of cell growth is associated induction of apoptosis. We treated HL-60 and U937 cells with three compounds that generate the same amount of NO but different rates. […] Furthermore, NO-induced growth inhibition was associated with apoptosis in a rate and concentration-dependent fashion (Reference 39).

[5] = target: T3, purified recombinant rat NOS1 oxygenase domain (Rattus norvegicus, UniProt P29476); assay: NOS inhibitor binding (Kd) to NOS1
T3 construct: purified recombinant rat NOS1 oxygenase domain

[6] = target: T4, purified recombinant human NOS2 oxygenase domain (Homo sapiens, UniProt P35228); assay: NOS inhibitor binding (Kd) to NOS2
T4 construct: purified recombinant human NOS2 oxygenase domain
Procedure: […] The cLogP value for each NOS inhibitor was determined using the CLOGP computer program (BioByte, Claremont, Calif.). […] Linear regression was used to examine the correlation between the IC50, Kd and cLogP values and ED50 values.
as §2

normal human BM cells = assay: NO drugs on colony formation of normal human BM cells; format: cell-based; conditions: for Development of marrow colonies: methylcellulose with erythropoietin and colony stimulating factors
Procedure: The effects of NO on the growth and differentiation of normal human BM cells were analyzed (Reference 85). We felt that normal hematopoietic cells, like malignant hematopoietic cells, would be affected by NO. […] NO reduced formation of BFU-E (burst forming unit-erythroid), CFU-E, CFU-GM (colony forming unit-granulocyte/macrophage), and CFU-M (colony forming unit-macrophage). […] In retrospect, we think that the increase in CFU-GM by NO from SNP may be due to alterations in apoptosis secondary to changes in bcl-2 or caspases. None of the noted inhibitions were related to cGMP (cyclic-guanosine monophosphate).

[7] = tested on: HL-60 myeloblastic leukemia cells; assay: NO drugs on growth of HL-60 myeloblastic leukemia cells; format: cell-based, human; conditions: NO delivered from the drug
Excerpt: While studying NO and macrophages progressed in the late 1980s, we hypothesized that NO produced in the BM (bone marrow) would be a modulator of normal and leukemic hematopoiesis. […] The differentiated cells were vacuolated, and had increased expression of nonspecific esterase, CD11b, and CD14.

[8] = MTS assay, CLL cell samples from different subjects

T4 sequence (P35228 1-504 limits assumed): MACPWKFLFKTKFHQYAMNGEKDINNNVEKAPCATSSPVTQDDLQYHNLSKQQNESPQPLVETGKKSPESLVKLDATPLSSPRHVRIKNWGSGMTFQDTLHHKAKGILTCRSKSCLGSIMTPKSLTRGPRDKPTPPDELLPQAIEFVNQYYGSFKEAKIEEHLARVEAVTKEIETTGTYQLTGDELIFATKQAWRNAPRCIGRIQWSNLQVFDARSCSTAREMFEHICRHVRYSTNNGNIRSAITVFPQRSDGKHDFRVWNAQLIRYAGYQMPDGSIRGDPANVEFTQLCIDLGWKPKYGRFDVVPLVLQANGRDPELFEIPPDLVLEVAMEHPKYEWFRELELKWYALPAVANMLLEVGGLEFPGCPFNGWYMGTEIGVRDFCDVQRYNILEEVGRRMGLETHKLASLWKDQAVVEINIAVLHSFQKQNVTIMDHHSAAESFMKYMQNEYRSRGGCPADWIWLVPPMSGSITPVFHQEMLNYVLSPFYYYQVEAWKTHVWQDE
T2 sequence (P29475 whole entry): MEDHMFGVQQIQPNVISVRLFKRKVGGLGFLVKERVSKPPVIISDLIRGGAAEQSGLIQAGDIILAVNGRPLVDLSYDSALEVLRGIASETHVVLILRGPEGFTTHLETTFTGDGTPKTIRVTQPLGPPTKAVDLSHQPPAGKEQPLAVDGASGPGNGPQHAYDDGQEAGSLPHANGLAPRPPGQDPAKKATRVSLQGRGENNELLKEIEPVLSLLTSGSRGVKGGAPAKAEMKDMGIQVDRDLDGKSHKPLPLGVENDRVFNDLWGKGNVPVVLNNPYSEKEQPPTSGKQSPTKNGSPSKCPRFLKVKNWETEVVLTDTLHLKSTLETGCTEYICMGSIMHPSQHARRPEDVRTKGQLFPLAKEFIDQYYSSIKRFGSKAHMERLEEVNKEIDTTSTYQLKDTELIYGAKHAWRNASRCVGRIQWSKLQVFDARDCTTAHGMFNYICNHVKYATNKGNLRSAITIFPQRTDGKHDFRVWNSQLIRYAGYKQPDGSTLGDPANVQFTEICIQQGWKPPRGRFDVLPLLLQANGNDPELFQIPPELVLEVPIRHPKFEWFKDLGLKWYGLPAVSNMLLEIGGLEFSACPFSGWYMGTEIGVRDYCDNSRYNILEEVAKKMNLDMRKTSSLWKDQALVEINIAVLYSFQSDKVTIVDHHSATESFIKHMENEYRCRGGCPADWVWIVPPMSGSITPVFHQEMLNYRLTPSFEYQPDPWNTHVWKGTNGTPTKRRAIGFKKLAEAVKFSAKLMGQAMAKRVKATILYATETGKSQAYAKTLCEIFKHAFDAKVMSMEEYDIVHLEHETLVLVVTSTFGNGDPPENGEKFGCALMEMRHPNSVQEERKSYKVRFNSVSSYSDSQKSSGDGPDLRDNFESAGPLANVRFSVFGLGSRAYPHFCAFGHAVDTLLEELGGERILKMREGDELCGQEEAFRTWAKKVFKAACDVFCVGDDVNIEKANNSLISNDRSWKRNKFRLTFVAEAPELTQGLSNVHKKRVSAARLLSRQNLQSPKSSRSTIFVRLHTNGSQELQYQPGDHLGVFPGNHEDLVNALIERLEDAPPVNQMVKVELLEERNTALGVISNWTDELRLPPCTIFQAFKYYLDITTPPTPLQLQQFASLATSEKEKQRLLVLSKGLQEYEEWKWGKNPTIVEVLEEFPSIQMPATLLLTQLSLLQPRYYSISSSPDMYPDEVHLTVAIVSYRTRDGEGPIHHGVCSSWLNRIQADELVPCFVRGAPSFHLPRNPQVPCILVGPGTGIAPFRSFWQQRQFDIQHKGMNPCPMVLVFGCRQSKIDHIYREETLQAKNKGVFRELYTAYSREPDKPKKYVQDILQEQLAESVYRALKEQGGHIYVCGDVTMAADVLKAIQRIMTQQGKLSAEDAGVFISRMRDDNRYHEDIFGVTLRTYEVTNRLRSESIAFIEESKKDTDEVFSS
T3 sequence (P29476 1-720 limits assumed): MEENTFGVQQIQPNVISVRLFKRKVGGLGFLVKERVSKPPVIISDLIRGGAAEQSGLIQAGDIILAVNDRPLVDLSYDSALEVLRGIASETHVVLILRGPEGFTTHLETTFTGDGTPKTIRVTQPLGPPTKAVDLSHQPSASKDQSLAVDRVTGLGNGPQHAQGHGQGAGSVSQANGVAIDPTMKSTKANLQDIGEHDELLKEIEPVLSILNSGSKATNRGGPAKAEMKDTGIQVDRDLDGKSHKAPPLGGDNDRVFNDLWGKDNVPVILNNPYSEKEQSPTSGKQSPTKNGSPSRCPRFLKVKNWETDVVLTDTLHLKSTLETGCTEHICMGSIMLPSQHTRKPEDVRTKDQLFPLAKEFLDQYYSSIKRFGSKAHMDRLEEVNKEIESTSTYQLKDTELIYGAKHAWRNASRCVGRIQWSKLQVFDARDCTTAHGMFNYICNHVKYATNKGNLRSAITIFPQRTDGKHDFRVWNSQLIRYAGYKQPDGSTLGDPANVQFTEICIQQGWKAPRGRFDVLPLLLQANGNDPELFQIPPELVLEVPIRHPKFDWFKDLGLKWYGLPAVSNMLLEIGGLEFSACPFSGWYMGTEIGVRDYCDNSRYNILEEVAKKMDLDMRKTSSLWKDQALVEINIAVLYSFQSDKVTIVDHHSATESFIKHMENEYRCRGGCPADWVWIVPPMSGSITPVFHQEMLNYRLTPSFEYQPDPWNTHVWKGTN
T1 sequence (P35228 whole entry): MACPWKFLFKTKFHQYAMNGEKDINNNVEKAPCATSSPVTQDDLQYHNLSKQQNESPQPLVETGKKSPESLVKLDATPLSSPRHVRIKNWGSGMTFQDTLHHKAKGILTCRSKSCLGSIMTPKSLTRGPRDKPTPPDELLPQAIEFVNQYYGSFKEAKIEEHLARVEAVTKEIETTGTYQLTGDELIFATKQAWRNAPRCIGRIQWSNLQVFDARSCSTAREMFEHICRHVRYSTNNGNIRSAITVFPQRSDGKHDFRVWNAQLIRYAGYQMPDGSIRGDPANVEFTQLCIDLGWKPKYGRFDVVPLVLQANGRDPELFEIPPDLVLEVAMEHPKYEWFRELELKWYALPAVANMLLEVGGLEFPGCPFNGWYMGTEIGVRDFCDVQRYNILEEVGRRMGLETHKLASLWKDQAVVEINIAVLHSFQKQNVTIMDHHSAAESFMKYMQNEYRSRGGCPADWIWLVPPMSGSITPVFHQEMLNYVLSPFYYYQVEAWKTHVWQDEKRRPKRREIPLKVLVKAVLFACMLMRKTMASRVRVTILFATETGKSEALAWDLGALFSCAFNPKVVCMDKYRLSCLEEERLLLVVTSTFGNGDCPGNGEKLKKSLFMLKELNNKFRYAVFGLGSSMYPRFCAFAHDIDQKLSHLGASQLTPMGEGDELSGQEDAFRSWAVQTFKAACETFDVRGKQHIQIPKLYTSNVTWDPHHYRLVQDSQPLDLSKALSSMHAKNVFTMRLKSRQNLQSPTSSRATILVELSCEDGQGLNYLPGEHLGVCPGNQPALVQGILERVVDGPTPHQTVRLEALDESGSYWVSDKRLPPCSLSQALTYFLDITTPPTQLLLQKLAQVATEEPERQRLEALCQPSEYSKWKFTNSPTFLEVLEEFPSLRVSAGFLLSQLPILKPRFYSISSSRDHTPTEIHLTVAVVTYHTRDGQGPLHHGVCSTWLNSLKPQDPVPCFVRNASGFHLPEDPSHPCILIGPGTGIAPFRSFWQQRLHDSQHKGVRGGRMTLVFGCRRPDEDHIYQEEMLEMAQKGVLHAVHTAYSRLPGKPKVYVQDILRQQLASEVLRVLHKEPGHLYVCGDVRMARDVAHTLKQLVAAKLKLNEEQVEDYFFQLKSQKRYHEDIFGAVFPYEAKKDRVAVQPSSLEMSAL

IC50 (purified human NOS2): 1.6 ± 0.3 µM
IC50 (purified human NOS1): 4.7 ± 0.8 µM
Molecule: N=C(N)SCCc1cccc(CCSC(=N)N)c1 [1,3 PB-ITU, S,S′-(1,3-Phenylene-bis(1,2-ethanediyl))bis-isothiourea 2HBr]
EC50 (CLL cells [1]; Homo sapiens, CLL cell): 293 ± 26.5 µM

Molecule: N=C(N)SCCc1ccc(CCSC(=N)N)cc1 [1,4 PB-ITU, S,S′-(1,4-Phenylene-bis(1,2-ethanediyl))bis-isothiourea 2HBr]
EC50 (CLL cells [1]; Homo sapiens, CLL cell): 321 ± 38.9 µM

Molecule: O=[N+]([O-])c1cccc2c(Br)n[nH]c12 [3-Bromo-7-NI, 3-Bromo-7-nitroindazole]
EC50 (CLL cells [1]; Homo sapiens, CLL cell): 225 ± 20 µM

Molecule: O=c1[nH]cc(F)c(=O)[nH]1 [5-fluorouracil]
NO / DETA-NO interaction with the agent's activity on CLL cells [2]: did not enhance the activity

IC50 (purified human NOS2): 45 ± 5.9 µM
IC50 (purified human NOS1): 72 ± 16 µM
Molecule: O=[N+]([O-])c1cccc2cn[nH]c12 [7-NI, 7-Nitroindazole]
Effect on anxiety and depression [3]: effective at reducing anxiety and depression
Side effects [3]: mild motor incoordination
EC50 (CLL cells [1]; Homo sapiens, CLL cell): 200 ± 29 µM

Molecule: COc1nc(N)nc2c1ncn2[C@@H]1O[C@H](CO)[C@@H](O)[C@@H]1O [506U78, 2-amino-9-β-D-6-methoxy araguanine]
NO / DETA-NO interaction with the agent's activity on CLL cells [2]: synergized

Molecule: CC(=N)NCc1cccc(CN)c1 [1400W, N-(3-(Aminomethyl)benzyl)acetamidine 2HCl]
EC50 (CLL cells [1]; Homo sapiens, CLL cell): 8240 ± 1880 µM

IC50 (purified human NOS2): 0.054 ± 0.001 µM
IC50 (purified human NOS1): 0.092 ± 0.002 µM
Molecule: CC1CCN=C(N)S1 (stereo not shown) [AMT, 2-Amino-5,6-dihydro-6-methyl-4H-1.3-thiazine HCl]

Molecule: Cl.Cl.N=C(Nc1ccc(CCNCc2cccc(Cl)c2)cc1)c1cccs1 [AR-R17477, N-(4-(2-((3-Chlorophenylmethyl)amino)ethyl)phenyl)-2-thiophecarboxamidine dihydrochloride]
CLL cell apoptosis (CLL cells [4]): induced CLL cell apoptosis
Annexin V binding to CLL cells (CLL cells [4]; co-culture for 2-6 h): increased
Mean caspase-3 activity (CLL cell caspase-3; 5 μM): 9741 arbitrary fluorescence units
Mean caspase-3 activity (CLL cell caspase-3; 10 μM): 7474 arbitrary fluorescence units
Mean caspase-3 activity (CLL cell caspase-3; 20 μM): 8074 arbitrary fluorescence units
CLL cell caspase-3 enzyme activity (time course) (CLL cell caspase-3; co-culture for 4 to 19 h): increased
CLL cell caspase-3 enzyme activity (concentration dependence) (CLL cell caspase-3; various concentrations, 4 h): dose-dependent increase
ED50 ranking, FIG. 10 (CLL cells [1]; cytotoxicity for CLL cells in vitro): lowest ED50
EC50 (CLL cells [1]; [8]): 7 ± 0.7 µM

Molecule: NCCN(CCN)/[N+]([O-])=N/O [DETA-NO, (Z)-1-[N-(2-aminoethyl)-N-(2-ammonioethyl)amino]diazen-1-ium-1,2-diolate-NO]
Interaction of DETA-NO with fludarabine in killing CLL cells ([2]; combination with fludarabine): acted synergistically
Inhibition of leukemia cell and colony growth (HL-60 and U937 cells): most potent inhibitor

Molecule: NCCNCCN [DETA]
Effect on CLL cell apoptosis and death [2]: had no effects

IC50 (purified human NOS2): 1500 ± 240 µM
Kd [5]: 0.1 µM
IC50 (purified human NOS1): 7.8 ± 2.5 µM
Kd [6]: 0.5 µM
Molecule: CCSC(=N)Nc1ccc(C(F)(F)F)cc1 [ETPI, S-Ethyl-N-[4-(trifluoromethyl)phenyl]isothiourea HCl]
EC50 (CLL cells [1]; Homo sapiens, CLL cell): 129 ± 20 µM

IC50 (purified human NOS2): 50 ± 9.5 µM
IC50 (purified human NOS1): 280 ± 80 µM
Molecule: N=C(N)NCCSSCCNC(=N)N [GED, Guanidinoethyldisulfide 2H2CO3]
EC50 (CLL cells [1]; Homo sapiens, CLL cell): 317 ± 77 µM

IC50 (purified human NOS2): 1.8 ± 0.3 µM
IC50 (purified human NOS1): 140 ± 15 µM
Molecule: CC(=N)NCCSCC[C@H](N)C(=O)O [GW274150, (S)-2-Amino-(1-iminoethylamino)-5-thioheptanoic acid]

IC50 (purified human NOS2): 17 ± 1.5 µM
Kd [5]: 0.5 µM
IC50 (purified human NOS1): 0.89 ± 0.06 µM
Kd [6]: 0.6 µM
Molecule: COC(=O)[C@@H](N)CCCNC(N)=N[N+](=O)[O-] [L-NAME, N^G-Nitro-L-arginine-methyl ester HCl]
EC50 (CLL cells [1]; Homo sapiens, CLL cell): 7220 ± 1300 µM

IC50 (purified human NOS2): 2.1 µM
Kd [5]: 0.7 µM
IC50 (purified human NOS1): 47 ± 1.2 µM
Kd [6]: 0.5 µM
Molecule: CC(=N)NCCCC[C@H](N)C(=O)O [L-NIL, L-N^6-(1-Iminoethyl)-lysine]

IC50 (purified human NOS2): 146 ± 36 µM
Kd [6]: 7 µM
Molecule: CCCNC(=N)NCCC[C@H](N)C(=O)O [N-Propyl-L-arginine, N^5-[Imino(propylamino)methyl]-L-ornithine]

Molecule: N=C(NCCC[C@H](N)CNCCN)N[N+](=O)[O-] [NAAANG, (4S)-N-(4-Amino-5[aminoethyl]aminopentyl)-N′-nitroguanidine 3TFA]
EC50 (CLL cells [1]; Homo sapiens, CLL cell): 5230 ± 3200 µM

IC50 (purified human NOS2): 1.9 ± 0.2 µM
IC50 (purified human NOS1): 3.8 ± 0.5 µM
Molecule: N=C(N)SCCCN [S-Aminopropyl ITU, S-(3-Aminopropyl)isothiourea 2HBr]
EC50 (CLL cells [1]; Homo sapiens, CLL cell): 112 ± 45.5 µM

IC50 (purified human NOS2): 1200 ± 290 µM
IC50 (purified human NOS1): 7.7 ± 1.8 µM
Molecule: CCSC(=N)N [S-Ethyl ITU, S-Ethylisothiourea HBr]

Molecule: CSC(=N)N [S-Methyl ITU, S-methylisothiourea sulfate]
EC50 (CLL cells [1]; [8]): 3080 ± 423 µM

Molecule: [NH-]c1c[n+](N2CCOCC2)no1 [SIN-1]
Development of marrow colonies (normal human BM cells): inhibited development of marrow colonies
Growth of HL-60 cells [7]: potently inhibited the growth

Molecule: CCc1c2c(nc3ccc(O)cc13)-c1cc3c(c(=O)n1C2)COC(=O)[C@]3(O)CC [SN-38]
NO / DETA-NO interaction with the agent's activity on CLL cells [2]: did not enhance the activity

Molecule: FC(F)(F)c1ccccc1-n1ccnc1 [TRIM, 1-(2-Trifluoromethylphenyl)imidazole]
Effect on anxiety and depression [3]: effective at reducing anxiety and depression
Side effects [3]: mild motor incoordination
EC50 (CLL cells [1]; Homo sapiens, CLL cell): 421 ± 61 µM

Molecule: CC1(C)N([O])C(c2ccc(C(=O)O)cc2)=[N+]([O-])C1(C)C [carboxy-PTIO]
Cytotoxicity for CLL cells (in words) (CLL cells [1]): not cytotoxic

Molecule: O=C(O)CCCc1ccc(N(CCCl)CCCl)cc1 [chlorambucil]
NO / DETA-NO interaction with the agent's activity on CLL cells [2]: did not enhance the activity

Molecule: COc1cccc2c1C(=O)c1c(O)c3c(c(O)c1C2=O)C[C@@](O)(C(=O)CO)C[C@@H]3O[C@H]1C[C@H](N)[C@H](O)[C@H](C)O1 [doxorubicin]
NO / DETA-NO interaction with the agent's activity on CLL cells [2]: did not enhance the activity

Molecule: Nc1ccn([C@@H]2O[C@H](CO)[C@@H](O)C2(F)F)c(=O)n1 [gemcitabine]
NO / DETA-NO interaction with the agent's activity on CLL cells [2]: did not enhance the activity

Molecule: C/C1=C2/[N-][C@H]([C@H](CC(N)=O)[C@@]2(C)CCC(=O)NC[C@@H](C)OP(=O)([O-])O[C@H]2[C@@H](O)[C@@H](n3cnc4cc(C)c(C)cc43)O[C@@H]2CO)[C@]2(C)N=C(/C(C)=C3N=C(/C=C4N=C1[C@@H](CCC(N)=O)C\4(C)C)[C@@H](CCC(N)=O)[C@]\3(C)CC(N)=O)[C@@H](CCC(N)=O)[C@]2(C)CC(N)=O.[Co+3].[OH-] [hydroxycobalamin]
Cytotoxicity for CLL cells (in words) (CLL cells [1]): not cytotoxic

Molecule: Mercaptoethylguanidine sodium succinate [MEG]
EC50 (CLL cells [1]; [8]): 181 ± 36.4 µM

Molecule: S-nitrosoacetylpenicillamine [SNAP]
Erythroid and myeloid colonies (normal human BM cells; isolated CD34+ cells): inhibited
Development of marrow colonies (normal human BM cells): inhibited development of marrow colonies
Growth of HL-60 cells [7]: potently inhibited the growth
